Source: ChEMBL document CHEMBL3407381, “Synthesis, biological evaluation and 3D QSAR study of 2,4-disubstituted quinolines as anti-tuberculosis agents” (Eur J Med Chem, 2015)

How the values were obtained:
[1] = system: Mycobacterium tuberculosis; assay: Anti-tuberculosis activity against Mycobacterium tuberculosis H37Rv assessed as inhibition of microbial growth at 6.25 ug/ml by MABA method; type: functional
[2] = system: L929; assay: Cytotoxicity against mouse L929 cells assessed as reduction cell viability after 5 days by MTT assay; type: cell-based; details: l929, 120 h
[3] = system: Mycobacterium tuberculosis; assay: Anti-tuberculosis activity against Mycobacterium tuberculosis H37Rv assessed as inhibition of microbial growth by MABA method; type: functional, organism-based
[4] = system: Mycobacterium tuberculosis; assay: Anti-tuberculosis activity against Mycobacterium tuberculosis H37Rv assessed as inhibition of microbial growth at 3.125 ug/ml by MABA method; type: functional
[5] = system: Mycobacterium tuberculosis; assay: Anti-tuberculosis activity against Mycobacterium tuberculosis H37Rv assessed as inhibition of microbial growth at 1.56 ug/ml by MABA method; type: functional

Question: What does the source list for `CC1CCC(c2cc(C(=O)NN)nc3ccccc23)CC1` (centres undefined)?
Answer: inhibition at 6.25 µg/mL [1]: 84%; Activity [2]: > 200 µg/mL; IC50 [3]: 3.55 µM; MIC90 [3]: 6.25 mg/L

Question: With `OC(c1ccccc1)c1cc(C23CC4CC(CC(C4)C2)C3)c2ccccc2n1` (centres undefined) as the molecule, how does the inhibition at 6.25 µg/mL [1] read?
Answer: 86%

Question: And the Activity [2]?
Answer: > 200 µg/mL

Question: And the IC50 [3]?
Answer: 3.09 µM

Question: And the MIC90 [3]?
Answer: 6.25 mg/L

Question: Which results are given for `COC1CCCC(c2cc(C(=O)NN)nc3ccccc23)C1` (centres undefined)?
Answer: inhibition at 6.25 µg/mL [1]: 90%; Activity [2]: > 200 µg/mL; IC50 [3]: 2.95 µM; MIC90 [3]: 6.25 mg/L

Question: Which inhibition at 6.25 µg/mL [1] does the source give for `O=C(c1cc(C23CC4CC(CC(C4)C2)C3)c2ccccc2c1)N1CCN(c2ccccc2)CC1` here?
Answer: 90%

Question: What about the Activity [2] of the same molecule?
Answer: > 200 µg/mL

Question: And the IC50 [3]?
Answer: 0.871 µM

Question: What about the MIC90 [3] of the same molecule?
Answer: 6.25 mg/L

Question: `O=C(NO)c1cc(C23CC4CC(CC(C4)C2)C3)c2ccccc2c1` was tested. Which inhibition at 6.25 µg/mL [1] did it give?
Answer: 91%

Question: What about the Activity [2] of the same molecule?
Answer: > 200 µg/mL

Question: And the IC50 [3]?
Answer: 1.17 µM

Question: What about the MIC90 [3] of the same molecule?
Answer: 6.25 mg/L

Question: Which results are given for `O=C(c1cc(C23CC4CC(CC(C4)C2)C3)c2ccccc2c1)N1CCN(c2ccccn2)CC1`?
Answer: inhibition at 6.25 µg/mL [1]: 8%; Activity [2]: > 200 µg/mL; IC50 [3]: 63.1 µM; MIC90 [3]: 6.25 mg/L

Question: With `COC(=O)c1cc(C23CC4CC(CC(C4)C2)C3)c2ccccc2n1` as the molecule, how does the inhibition at 6.25 µg/mL [1] read?
Answer: ≥ 90%

Question: Which results are given for `CN1CCN(C(=O)c2cc(C34CC5CC(CC(C5)C3)C4)c3ccccc3c2)CC1`?
Answer: inhibition at 6.25 µg/mL [1]: 87%; Activity [2]: > 200 µg/mL; IC50 [3]: 5.89 µM; MIC90 [3]: 6.25 mg/L

Question: Which inhibition at 6.25 µg/mL [1] does the source give for `O=C(c1cc(C23CC4CC(CC(C4)C2)C3)c2ccccc2c1)N1CCOCC1` here?
Answer: 14%

Question: And the Activity [2]?
Answer: > 200 µg/mL

Question: And the IC50 [3]?
Answer: 110 µM

Question: What about the MIC90 [3] of the same molecule?
Answer: 6.25 mg/L

Question: What does the source list for `CO[C@H]1CC[C@@H](c2cc(C(=O)NN)nc3ccccc32)CC1`?
Answer: inhibition at 6.25 µg/mL [1]: 90%; Activity [2]: > 200 µg/mL; IC50 [3]: 2.34 µM; MIC90 [3]: 6.25 mg/L

Question: Which inhibition at 6.25 µg/mL [1] does the source give for `CC1CCCCC1c1cc(C(=O)NN)nc2ccccc12` (centres undefined) here?
Answer: 99%

Question: What about the Activity [2] of the same molecule?
Answer: > 200 µg/mL

Question: And the IC50 [3]?
Answer: 0.457 µM

Question: What about the MIC90 [3] of the same molecule?
Answer: 3.12 mg/L

Question: What about the inhibition at 3.125 µg/mL [4] of the same molecule?
Answer: 99%

Question: What about the inhibition at 1.56 µg/mL [5] of the same molecule?
Answer: 77%

Question: With `CO[C@H]1/C=C/O[C@@]2(C)Oc3c(C)c(O)c4c(O)c(c(/C=N/N5CCN(C)CC5)c(O)c4c3C2=O)NC(=O)/C(C)=C\C=C\[C@H](C)[C@H](O)[C@@H](C)[C@@H](O)[C@@H](C)[C@H](OC(C)=O)[C@@H]1C` [RIFAMPIN] as the molecule, how does the MIC99 [3] read?
Answer: 0.2 mg/L

Question: Which results are given for `O=C(NC1CCN(Cc2ccccc2)CC1)c1cc(C23CC4CC(CC(C4)C2)C3)c2ccccc2c1`?
Answer: inhibition at 6.25 µg/mL [1]: 90%; Activity [2]: > 200 µg/mL; IC50 [3]: 1.51 µM; MIC90 [3]: 6.25 mg/L

Question: For `CN(C)c1ccc(C(O)c2cc(C34CC5CC(CC(C5)C3)C4)c3ccccc3n2)cc1` (centres undefined), which inhibition at 6.25 µg/mL [1] is on record?
Answer: 4%

Question: What about the Activity [2] of the same molecule?
Answer: > 200 µg/mL

Question: What about the IC50 [3] of the same molecule?
Answer: 331 µM

Question: And the MIC90 [3]?
Answer: 6.25 mg/L

Question: What does the source list for `O=C(c1cc(C23CC4CC(CC(C4)C2)C3)c2ccccc2c1)N1CCNCC1`?
Answer: inhibition at 6.25 µg/mL [1]: 82%; Activity [2]: > 200 µg/mL; IC50 [3]: 3.09 µM; MIC90 [3]: 6.25 mg/L

Question: Which results are given for `OC(c1cc(C23CC4CC(CC(C4)C2)C3)c2ccccc2n1)c1cccc2ccccc12` (centres undefined)?
Answer: inhibition at 6.25 µg/mL [1]: 9%; Activity [2]: > 200 µg/mL; IC50 [3]: 182 µM; MIC90 [3]: 6.25 mg/L

Question: How did the inhibition at 6.25 µg/mL [1] turn out when `COc1ccc(C(O)c2cc(C34CC5CC(CC(C5)C3)C4)c3ccccc3n2)cc1` (centres undefined) was run?
Answer: 47%

Question: What about the Activity [2] of the same molecule?
Answer: > 200 µg/mL

Question: And the IC50 [3]?
Answer: 83.2 µM

Question: What about the MIC90 [3] of the same molecule?
Answer: 6.25 mg/L

Question: Which inhibition at 6.25 µg/mL [1] does the source give for `COC(=O)c1ccc2ccccc2n1` here?
Answer: ≥ 90%

Question: Which inhibition at 6.25 µg/mL [1] does the source give for `CC(C)(C)C1CCC(c2cc(C(=O)NN)nc3ccccc23)CC1` (centres undefined) here?
Answer: 99%

Question: And the Activity [2]?
Answer: > 200 µg/mL

Question: And the IC50 [3]?
Answer: 0.347 µM

Question: What about the MIC90 [3] of the same molecule?
Answer: 3.12 mg/L

Question: And the inhibition at 3.125 µg/mL [4]?
Answer: 99%

Question: What about the inhibition at 1.56 µg/mL [5] of the same molecule?
Answer: 82%

Question: What does the source list for `Cc1ccc(C(O)c2cc(C34CC5CC(CC(C5)C3)C4)c3ccccc3n2)cc1` (centres undefined)?
Answer: inhibition at 6.25 µg/mL [1]: 76%; Activity [2]: > 200 µg/mL; IC50 [3]: 5.01 µM; MIC90 [3]: 6.25 mg/L

Question: With `CCCC(O)c1cc(C23CC4CC(CC(C4)C2)C3)c2ccccc2n1` (centres undefined) as the molecule, how does the inhibition at 6.25 µg/mL [1] read?
Answer: 86%

Question: What about the Activity [2] of the same molecule?
Answer: > 200 µg/mL

Question: What about the IC50 [3] of the same molecule?
Answer: 4.47 µM

Question: What about the MIC90 [3] of the same molecule?
Answer: 6.25 mg/L

Question: For `CO[C@H]1CC[C@H](c2cc(C(=O)NN)nc3ccccc32)CC1`, which inhibition at 6.25 µg/mL [1] is on record?
Answer: 32%

Question: What about the Activity [2] of the same molecule?
Answer: > 200 µg/mL

Question: What about the IC50 [3] of the same molecule?
Answer: 32.4 µM

Question: And the MIC90 [3]?
Answer: 6.25 mg/L

Question: Which results are given for `O=C(c1cc(C23CC4CC(CC(C4)C2)C3)c2ccccc2c1)N1CCCCC1`?
Answer: inhibition at 6.25 µg/mL [1]: 9%; Activity [2]: > 200 µg/mL; IC50 [3]: 120 µM; MIC90 [3]: 6.25 mg/L

Question: Which results are given for `O=C(c1cc(C23CC4CC(CC(C4)C2)C3)c2ccccc2c1)N1CCCC1`?
Answer: inhibition at 6.25 µg/mL [1]: 53%; Activity [2]: > 200 µg/mL; IC50 [3]: 13.2 µM; MIC90 [3]: 6.25 mg/L

Question: For `NNC(=O)c1cc(CC2CC3CCC2C3)c2ccccc2n1` (centres undefined), which inhibition at 6.25 µg/mL [1] is on record?
Answer: 92%

Question: What about the Activity [2] of the same molecule?
Answer: > 200 µg/mL

Question: And the IC50 [3]?
Answer: 1.95 µM

Question: And the MIC90 [3]?
Answer: 6.25 mg/L

Question: Which inhibition at 6.25 µg/mL [1] does the source give for `C=CCC(O)c1cc(C23CC4CC(CC(C4)C2)C3)c2ccccc2n1` (centres undefined) here?
Answer: 44%

Question: What about the Activity [2] of the same molecule?
Answer: > 200 µg/mL

Question: What about the IC50 [3] of the same molecule?
Answer: 22.9 µM

Question: What about the MIC90 [3] of the same molecule?
Answer: 6.25 mg/L

Question: Which inhibition at 6.25 µg/mL [1] does the source give for `NNC(=O)c1cc(C2CCC(C(F)(F)F)CC2)c2ccccc2n1` (centres undefined) here?
Answer: 89%

Question: What about the Activity [2] of the same molecule?
Answer: > 200 µg/mL

Question: And the IC50 [3]?
Answer: 2.75 µM

Question: And the MIC90 [3]?
Answer: 6.25 mg/L

Question: Which results are given for `OC(c1ccc(F)cc1)c1cc(C23CC4CC(CC(C4)C2)C3)c2ccccc2n1` (centres undefined)?
Answer: inhibition at 6.25 µg/mL [1]: 99%; Activity [2]: > 200 µg/mL; IC50 [3]: 0.316 µM; MIC90 [3]: 3.12 mg/L; inhibition at 3.125 µg/mL [4]: 99%; inhibition at 1.56 µg/mL [5]: 69%

Question: What does the source list for `NNC(=O)c1cc(C23CC4CC(CC(C4)C2)C3)c2ccccc2n1`?
Answer: inhibition at 6.25 µg/mL [1]: 99%; Activity [2]: > 200 µg/mL; IC50 [3]: 0.389 µM; MIC90 [3]: 3.12 mg/L; inhibition at 3.125 µg/mL [4]: 99%; inhibition at 1.56 µg/mL [5]: 80%

Question: `NNC(=O)c1ccncc1` [ISONIAZID] was tested. Which MIC99 [3] did it give?
Answer: 0.1 mg/L

Question: What does the source list for `CCCCC(O)c1cc(C23CC4CC(CC(C4)C2)C3)c2ccccc2n1` (centres undefined)?
Answer: inhibition at 6.25 µg/mL [1]: 91%; Activity [2]: > 200 µg/mL; IC50 [3]: 2.19 µM; MIC90 [3]: 6.25 mg/L

Question: `CCC(O)c1cc(C23CC4CC(CC(C4)C2)C3)c2ccccc2n1` (centres undefined) was tested. Which inhibition at 6.25 µg/mL [1] did it give?
Answer: 73%

Question: What about the Activity [2] of the same molecule?
Answer: > 200 µg/mL

Question: What about the IC50 [3] of the same molecule?
Answer: 6.92 µM

Question: What about the MIC90 [3] of the same molecule?
Answer: 6.25 mg/L
